{"source": "patent US8207137B2", "about": "“Method of inhibiting angiogenesis or invasion or formation of metastases” (INSERM, priority 2001, dated 2012)", "key": {"[1]": {"test_system": "B16F10", "experiment": "Cell proliferation, tritiated thymidine incorporation", "assay_type": "cell-based, murine", "details": "B16F10 cancer cells, mean±SEM", "protocol": "The cells were cultured at the rate of 20,000 cells per well (96-well plate, Greiner) in the complete medium. After 24 h, the cells were cultured in a medium containing a concentration lower by half than that corresponding to the complete medium to induce the cell in phase G0/G1 of proliferation for 24 supplementary hours. The cells were then cultured for 30 h with complete medium in the presence or without the presence of AMEP. Tritiated thymidine (1 μCi per well) was then added to the cells and incubated for 18 hours. Incorporation of the tritiated thymidine by the cells was quantified by filter paper according to the protocol described for the use of a Skatron (Skatron, Lier, Norway). Radioactivity was then determined by counting after addition of scintillation liquid. The results were expressed as a percentage in relation to the control."}, "[2]": {"test_system": "HMEC-1 cells", "experiment": "Formation of capillary structures in fibrin gel, Cytodex beads model", "assay_type": "cell-based, human", "protocol": "The second model used beads on the order of 150 μm according to the technique described by Nehl et al. The cells used were HMEC-1 since CPAE could not be used in this model. The HMEC-1 cells cannot, however, be employed in the previously described model. The HMEC-1 cells adhere to the Cytodex 3 beads (Sigma) when the cells are incubated with the beads in the complete medium for 4 h at 37° C. The beads were then resuspended in a large volume of complete medium to have 30 cells/beads and agitated for 5 minutes every 30 minutes at 30 rpm for 12 h, followed by a continuous culture at the same rate for 4 days. When the entire surface of the beads was covered by cells, the beads were centrifuged at 800 g for 5 minutes to concentrate and incorporate them in a fibrin gel the same as that described for the preceding model, and the same as the methods of quantification and analysis of the results. In contrast to the model used for the CPAE, the capillary structures only appeared after 3 days of culture at 37° C."}, "[3]": {"test_system": "CPAE cells (calf pulmonary artery endothelial cells)", "experiment": "Adhesion of CPAE endothelial cells to fibrinogen, vitronectin and fibronectin", "assay_type": "cell-based, bovine", "protocol": "First technique: punctual incubation of the endothelial cells with AMEP during the test.\nThe CPAE were detached from the culture plates by incubation with 1.5 mM EDTA and resuspended at the rate of 5×10^5 cells/ml in the adhesion buffer (140 mM NaCl, 10 mM Hepes, 5 mM glucose, 5.4 mM KCl, 2 mM CaCl2, 1 mM MgCl2, 1 mM MnCl2, pH 7.4). […] Dutcher) that had been incubated in advance for one night at 4° C. with 50 μl of purified fibrinogen (40 μg/ml in PBS; Kabi), 10 μg/ml of vitronectin (Sigma); 30 μg/ml of fibronectin (Sigma) and 1% of BSA (bovine serum albumin) as negative control. After 20 minutes of incubation of the CPAE cells at 37° C., the plate was washed twice with 200 μl of adhesion buffer and the nonspecific sites were saturated with PBS supplemented with 1% of BSA for 1 hour at 37° C. The plate was then washed again twice with the adhesion buffer containing 1% of BSA. The nonadherent cells were eliminated by washing the wells three times with 200 μl of adhesion buffer plus 1% of BSA. Measurement of the phosphatase activity of the cells enabled quantification of the adherent cells. In brief, 100 μl of paranitrophenol phosphate (Sigma) at 3 mg/ml in the acetate buffer pH containing 0.1% of X100 Triton was added to the wells and incubated for 2 h at 37° C. The reaction was stopped by the addition of 1N NaOH. The release of paranitrophenol, which indicates the number of adherent cells, was measured after reading of the absorbance at 405 nm with an ELISA reader (Titertek Twinreader). […] The remainder of the protocol was identical to the that described above with the exception that no additional incubation of the cells with AMEP was performed."}, "[4]": {"details": "cells incubated punctually for 30 minutes prior to adhesion test, 1.4-kDa peptide 1 μg/ml, AMEP 10 μg/ml (comparable molar concentration)"}, "[5]": {"details": "cells preincubated for 24 h, same molar concentration (AMEP 10 μg/ml, 1.4-kDa peptide 1 μg/ml)"}}}
{"substance": "AMEP: disintegrin domain of human metargidin (Met-420 to Glu-511, SEQ ID NO. 2), 91 amino acids, 9.7 kDa; recombinant or expressed in vivo by gene electrotransfer", "values": [{"measurement": "% inhibition of cell proliferation by AMEP (5 μg/ml)", "setting": "[1]", "value": "74.3 ± 7.0", "unit": "%"}, {"measurement": "reduction in the size of the tubes (capillary structures)", "setting": "[2]; HMEC-1 on beads in fibrin gel, 5 μg/ml, after 10 days", "value": 90, "unit": "%"}, {"measurement": "effect on formation of capillary structures", "setting": "[2]; HMEC-1 on beads in fibrin gel, 5 μg/ml, after three days of culture", "value": "inhibitory effect"}, {"measurement": "formation of capillary structures", "setting": "[2]; model using HMEC-1, in the presence of AMEP", "value": "total inhibition"}, {"measurement": "inhibition of adhesion of endothelial cells on fibrinogen", "setting": "[3]; [4]", "value": "no significant effect"}, {"measurement": "inhibition of adhesion of endothelial cells on vitronectin", "setting": "[3]; [4]", "value": "no significant effect"}, {"measurement": "inhibition of adhesion of endothelial cells on fibrinogen", "setting": "[3]; [5]", "value": 30, "unit": "%"}, {"measurement": "inhibition of adhesion of endothelial cells on fibronectin", "setting": "[3]; [5]", "value": 30, "unit": "%"}, {"measurement": "inhibition of adhesion of endothelial cells on vitronectin", "setting": "[3]; [5]", "value": 30, "unit": "%"}]}
